Bridge positions count the residues as written; N and C are the ends. Square brackets hold non-standard residues; d marks the D form. Peptide text beside a SMILES is read from it. * marks the point of attachment. X1 = OC[C@H]1O[C@H](OC[C@H]2O[C@H](*)[C@@H](O)[C@@H](O)[C@@H]2O)[C@@H](O)[C@@H](O)[C@@H]1O; X5 = O=P(O)(O)OC[C@H]1O[C@H](*)[C@@H](O)[C@@H](O)[C@@H]1O; αMan = OC[C@H]1O[C@H](*)[C@@H](O)[C@@H](O)[C@@H]1O; βGlc = OC[C@H]1O[C@@H](*)[C@H](O)[C@@H](O)[C@@H]1O
Biological target: T1, thermolysin (Bacillus thermoproteolyticus, UniProt P00800)
T1 sequence (P00800 233-548): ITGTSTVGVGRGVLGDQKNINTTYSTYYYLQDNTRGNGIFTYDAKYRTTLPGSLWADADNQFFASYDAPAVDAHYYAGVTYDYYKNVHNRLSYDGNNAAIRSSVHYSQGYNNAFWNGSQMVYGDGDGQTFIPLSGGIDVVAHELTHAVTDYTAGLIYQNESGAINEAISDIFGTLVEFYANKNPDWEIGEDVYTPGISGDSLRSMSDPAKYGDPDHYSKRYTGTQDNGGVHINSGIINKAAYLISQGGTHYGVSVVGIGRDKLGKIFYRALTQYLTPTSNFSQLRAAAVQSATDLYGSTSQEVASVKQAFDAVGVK
Test: Proteolytic stability: half-life to thermolysin degradation
Format: in vitro ADME
Conditions: for Change in Half-Life to Thermolysin Degradation: glyco-variant minus its corresponding unglycosylated CBM (e.g. 2-1), *** not used in the correlation plot; for half-life: thermolysin (isolated protease), thermolysin degradation, mean of three trials ± SD, procedures as described previously (ESI ref 18)
Experimental: All error bars reported are standard deviations of data achieved from three separate trials.
cellulose that were determined in accordance with our procedures as described previously 18.
The results are presented as mean of three trials ± SD. *Denotes an averaged value of four trials

Compound	Change in Half-Life to Thermolysin Degradation	half-life
CC[C@H](C)[C@@H]1NC(=O)CNC(=O)CNC(=O)[C@@H](NC(=O)[C@H](CCC(N)=O)NC(=O)CNC(=O)[C@H](Cc2ccc(O)cc2)NC(=O)[C@H](Cc2c[nH]cn2)NC(=O)[C@H](CO[C@H]2O[C@H](CO[C@H]3O[C@H](CO)[C@@H](O)[C@H](O)[C@@H]3O)[C@@H](O)[C@H](O)[C@@H]2O)NC(=O)[C@H](CCC(N)=O)NC(=O)[C@@H](N)[C@@H](C)O)CSSC[C@@H]2NC(=O)[C@H]([C@@H](C)O)NC(=O)[C@H]([C@@H](C)O)NC(=O)CNC(=O)[C@H](CO)NC(=O)[C@H](C)NC(=O)[C@H](CSSC[C@@H](C(=O)N[C@@H](CC(C)C)C(=O)O)NC(=O)[C@H](CCC(N)=O)NC(=O)[C@H](CO)NC(=O)[C@H](Cc3ccc(O)cc3)NC(=O)[C@H](Cc3ccc(O)cc3)NC(=O)[C@@H]3CCCN3C(=O)[C@H](CC(N)=O)NC(=O)[C@H](CC(C)C)NC(=O)[C@H](C(C)C)NC(=O)[C@H](CCC(N)=O)NC2=O)NC(=O)[C@H](C(C)C)NC(=O)[C@H]([C@@H](C)O)NC(=O)[C@@H]2CCCN2C(=O)CNC(=O)[C@H](CO)NC(=O)[C@H](Cc2ccc(O)cc2)NC(=O)CNC1=O [CBM variant 29] (H-TQS(X1)HYGQCGGIGYSGPTVCASGTTCQVLNPYYSQCL-OH; disulfide 8-25, 19-35)	37.8 min	51.6 ± 1.8 min
CC[C@H](C)[C@@H]1NC(=O)CNC(=O)CNC(=O)[C@@H](NC(=O)[C@H](CCC(N)=O)NC(=O)CNC(=O)[C@H](C)NC(=O)[C@H](Cc2c[nH]cn2)NC(=O)[C@H](CO[C@H]2O[C@H](CO)[C@@H](O)[C@H](O)[C@@H]2O)NC(=O)[C@H](CCC(N)=O)NC(=O)[C@@H](N)[C@@H](C)O)CSSC[C@@H]2NC(=O)[C@H]([C@@H](C)O)NC(=O)[C@H]([C@@H](C)O)NC(=O)CNC(=O)[C@H](CO)NC(=O)[C@H](C)NC(=O)[C@H](CSSC[C@@H](C(=O)N[C@@H](CC(C)C)C(=O)O)NC(=O)[C@H](CCC(N)=O)NC(=O)[C@H](CO)NC(=O)[C@H](Cc3ccc(O)cc3)NC(=O)[C@H](Cc3ccc(O)cc3)NC(=O)[C@@H]3CCCN3C(=O)[C@H](CC(N)=O)NC(=O)[C@H](CC(C)C)NC(=O)[C@H](C(C)C)NC(=O)[C@H](CCC(N)=O)NC2=O)NC(=O)[C@H](C(C)C)NC(=O)[C@H]([C@@H](C)O)NC(=O)[C@@H]2CCCN2C(=O)CNC(=O)[C@H](CO)NC(=O)[C@H](Cc2ccc(O)cc2)NC(=O)CNC1=O [CBM variant 11] (H-TQS(αMan)HAGQCGGIGYSGPTVCASGTTCQVLNPYYSQCL-OH; disulfide 8-25, 19-35)	6 min	10.8 ± 1.8 min
CC[C@H](C)[C@@H]1NC(=O)CNC(=O)CNC(=O)[C@@H](NC(=O)[C@H](CCC(N)=O)NC(=O)CNC(=O)[C@H](Cc2ccc(O)cc2)NC(=O)[C@H](Cc2c[nH]cn2)NC(=O)[C@H](CO[C@H]2O[C@H](CO)[C@@H](O)[C@H](O)[C@@H]2O)NC(=O)[C@H](CCC(N)=O)NC(=O)[C@@H](N)[C@@H](C)O)CSSC[C@@H]2NC(=O)[C@H]([C@@H](C)O)NC(=O)[C@H]([C@@H](C)O)NC(=O)CNC(=O)[C@H](CO)NC(=O)[C@H](C)NC(=O)[C@H](CSSC[C@@H](C(=O)N[C@@H](CC(C)C)C(=O)O)NC(=O)[C@H](CCC(N)=O)NC(=O)[C@H](CO)NC(=O)[C@H](Cc3ccc(O)cc3)NC(=O)[C@H](Cc3ccc(O)cc3)NC(=O)[C@@H]3CCCN3C(=O)[C@H](CC(N)=O)NC(=O)[C@H](CC(C)C)NC(=O)[C@H](C(C)C)NC(=O)[C@H](CCC(N)=O)NC2=O)NC(=O)[C@H](C(C)C)NC(=O)[C@H]([C@@H](C)O)NC(=O)[C@@H]2CCCN2C(=O)CNC(=O)[C@H](CO)NC(=O)[C@H](Cc2ccc(O)cc2)NC(=O)CNC1=O [CBM variant 2] (H-TQS(αMan)HYGQCGGIGYSGPTVCASGTTCQVLNPYYSQCL-OH; disulfide 8-25, 19-35)	51.6 min	65.4 ± 0.6 min
CC[C@H](C)[C@@H]1NC(=O)CNC(=O)CNC(=O)[C@@H](NC(=O)[C@H](CCC(N)=O)NC(=O)CNC(=O)[C@H](Cc2ccc(O)cc2)NC(=O)[C@H](Cc2c[nH]cn2)NC(=O)[C@@H](CO)NC(=O)[C@H](CCC(N)=O)NC(=O)[C@@H](N)[C@@H](C)O)CSSC[C@@H]2NC(=O)[C@H]([C@@H](C)O)NC(=O)[C@H]([C@@H](C)O)NC(=O)CNC(=O)[C@H](CO)NC(=O)[C@H](C)NC(=O)[C@H](CSSC[C@@H](C(=O)N[C@@H](CC(C)C)C(=O)O)NC(=O)[C@H](CCC(N)=O)NC(=O)[C@H](CO)NC(=O)[C@H](Cc3ccc(O)cc3)NC(=O)[C@H](Cc3ccc(O)cc3)NC(=O)[C@@H]3CCCN3C(=O)[C@H](CC(N)=O)NC(=O)[C@H](CC(C)C)NC(=O)[C@H](C(C)C)NC(=O)[C@H](CCC(N)=O)NC2=O)NC(=O)[C@H](C(C)C)NC(=O)[C@H]([C@@H](C)O)NC(=O)[C@@H]2CCCN2C(=O)CNC(=O)[C@H](CO)NC(=O)[C@H](Cc2ccc(O)cc2)NC(=O)CNC1=O [CBM variant 16] (H-TQ[dS]HYGQCGGIGYSGPTVCASGTTCQVLNPYYSQCL-OH; disulfide 8-25, 19-35)	–	11.4 ± 2.4 min
CC[C@H](C)[C@@H]1NC(=O)CNC(=O)CNC(=O)[C@@H](NC(=O)[C@H](CCC(N)=O)NC(=O)CNC(=O)[C@H](Cc2ccc(O)cc2)NC(=O)[C@H](Cc2c[nH]cn2)NC(=O)[C@H](CO[C@H]2O[C@H](COP(=O)(O)O)[C@@H](O)[C@H](O)[C@@H]2O)NC(=O)[C@H](CCC(N)=O)NC(=O)[C@@H](N)[C@@H](C)O)CSSC[C@@H]2NC(=O)[C@H]([C@@H](C)O)NC(=O)[C@H]([C@@H](C)O)NC(=O)CNC(=O)[C@H](CO)NC(=O)[C@H](C)NC(=O)[C@H](CSSC[C@@H](C(=O)N[C@@H](CC(C)C)C(=O)O)NC(=O)[C@H](CCC(N)=O)NC(=O)[C@H](CO)NC(=O)[C@H](Cc3ccc(O)cc3)NC(=O)[C@H](Cc3ccc(O)cc3)NC(=O)[C@@H]3CCCN3C(=O)[C@H](CC(N)=O)NC(=O)[C@H](CC(C)C)NC(=O)[C@H](C(C)C)NC(=O)[C@H](CCC(N)=O)NC2=O)NC(=O)[C@H](C(C)C)NC(=O)[C@H]([C@@H](C)O)NC(=O)[C@@H]2CCCN2C(=O)CNC(=O)[C@H](CO)NC(=O)[C@H](Cc2ccc(O)cc2)NC(=O)CNC1=O [CBM variant 20] (H-TQS(X5)HYGQCGGIGYSGPTVCASGTTCQVLNPYYSQCL-OH; disulfide 8-25, 19-35)	20.4 min	34.2 ± 3.6 min
CC[C@H](C)[C@@H]1NC(=O)CNC(=O)CNC(=O)[C@@H](NC(=O)[C@H](CCC(N)=O)NC(=O)CNC(=O)[C@H](Cc2ccc(O)cc2)NC(=O)[C@H](Cc2c[nH]cn2)NC(=O)[C@@H](CO[C@H]2O[C@H](CO)[C@@H](O)[C@H](O)[C@@H]2O)NC(=O)[C@H](CCC(N)=O)NC(=O)[C@@H](N)[C@@H](C)O)CSSC[C@@H]2NC(=O)[C@H]([C@@H](C)O)NC(=O)[C@H]([C@@H](C)O)NC(=O)CNC(=O)[C@H](CO)NC(=O)[C@H](C)NC(=O)[C@H](CSSC[C@@H](C(=O)N[C@@H](CC(C)C)C(=O)O)NC(=O)[C@H](CCC(N)=O)NC(=O)[C@H](CO)NC(=O)[C@H](Cc3ccc(O)cc3)NC(=O)[C@H](Cc3ccc(O)cc3)NC(=O)[C@@H]3CCCN3C(=O)[C@H](CC(N)=O)NC(=O)[C@H](CC(C)C)NC(=O)[C@H](C(C)C)NC(=O)[C@H](CCC(N)=O)NC2=O)NC(=O)[C@H](C(C)C)NC(=O)[C@H]([C@@H](C)O)NC(=O)[C@@H]2CCCN2C(=O)CNC(=O)[C@H](CO)NC(=O)[C@H](Cc2ccc(O)cc2)NC(=O)CNC1=O [CBM variant 17] (H-TQ[dS](αMan)HYGQCGGIGYSGPTVCASGTTCQVLNPYYSQCL-OH; disulfide 8-25, 19-35)	–	10.2 ± 1.2 min
CC[C@H](C)[C@@H]1NC(=O)CNC(=O)CNC(=O)[C@@H](NC(=O)[C@H](CCC(N)=O)NC(=O)CNC(=O)[C@H](Cc2ccc(O)cc2)NC(=O)[C@H](Cc2c[nH]cn2)NC(=O)[C@H](CO[C@@H]2O[C@H](CO)[C@@H](O)[C@H](O)[C@H]2O)NC(=O)[C@H](CCC(N)=O)NC(=O)[C@@H](N)[C@@H](C)O)CSSC[C@@H]2NC(=O)[C@H]([C@@H](C)O)NC(=O)[C@H]([C@@H](C)O)NC(=O)CNC(=O)[C@H](CO)NC(=O)[C@H](C)NC(=O)[C@H](CSSC[C@@H](C(=O)N[C@@H](CC(C)C)C(=O)O)NC(=O)[C@H](CCC(N)=O)NC(=O)[C@H](CO)NC(=O)[C@H](Cc3ccc(O)cc3)NC(=O)[C@H](Cc3ccc(O)cc3)NC(=O)[C@@H]3CCCN3C(=O)[C@H](CC(N)=O)NC(=O)[C@H](CC(C)C)NC(=O)[C@H](C(C)C)NC(=O)[C@H](CCC(N)=O)NC2=O)NC(=O)[C@H](C(C)C)NC(=O)[C@H]([C@@H](C)O)NC(=O)[C@@H]2CCCN2C(=O)CNC(=O)[C@H](CO)NC(=O)[C@H](Cc2ccc(O)cc2)NC(=O)CNC1=O [CBM variant 24] (H-TQS(βGlc)HYGQCGGIGYSGPTVCASGTTCQVLNPYYSQCL-OH; disulfide 8-25, 19-35)	3 min	16.8 ± 1.8 min

Source: article PMC5580309, “Molecular-scale features that govern the effects of O-glycosylation on a carbohydrate-binding module” (Chemical Science, 2015)
